Results as given in PMC6028718, “Lanthanide-Dependent Methanol Dehydrogenases of XoxF4 and XoxF5 Clades Are Differentially Distributed Among Methylotrophic Bacteria and They Reveal Different Biochemical Properties” (Frontiers in Microbiology, 2018).

These compounds were tested on T1, XoxF5 (assay: PMS-mediated DCPIP reduction at […] nm). Conditions: pH 9.0, 45 mM NH4Cl, ~26°C, 1 mM PMS, 150 μM DCPIP; Ce3+-grown enzyme; read-out: Methylomonas sp. LW13 XoxF5 / Km.
T1 construct: His-tagged, expressed in native host Methylomonas sp; LW13 (wild-type) grown with Ce3+; Ni-NTA purified
Assay type: biochemical

How did the Km turn out when CO [Methanol] was run?
Its Km is 39 ± 11 µM.

CCCCO [Butanol] was tested. Which Km did it give?
Its Km is 96 ± 70 µM.

For CCCCCCO [Hexanol], which Km is on record?
Its Km is 40 ± 37 µM.

How did the Km turn out when CCO [Ethanol] was run?
The Km was 85 ± 44 µM.
